Assay results from patent US9403763B2, “CD4-mimetic inhibitors of HIV-1 entry and methods of use thereof” (priority 2011, dated 2016).
Entries after “also recorded” stand apart in the source; their conditions may differ. Counter-ions that a name gives are not always drawn. Like-named read-outs stand apart in the source and are kept apart here.

Legend:
[1] = tested on: amphotropic murine leukemia virus (A-MLV); assay: Specificity control: infection by virus pseudotyped with A-MLV envelope glycoproteins; assay type: cell-based; conditions: for specificity: inhibition of A-MLV entry: either cell type
Method: (§1) The calorimetric cell (approximately 1.4 mL), containing gp120 from the YU2 strain dissolved in PBS (Roche Diagnostics GmbH, Mannheim, Germany), pH 7.4 with 2% DMSO, was titrated with the different inhibitors dissolved in the same buffer.
(§2) The recombinant viruses employed were pseudotyped with HIV-1 envelope glycoproteins derived from either an X4, laboratory-adapted HXBc2 isolate, or the R5, primary YU2 isolate. As a control for specificity, the viruses were pseudotyped with the envelope glycoproteins of the amphotropic murine leukemia virus (A-MLV), an unrelated retrovirus.
(§3) Compounds were dissolved in dimethyl sulfoxide (DMSO), and stored at 10 mM concentrations at −20° C. The compounds were diluted in Dulbecco Modified Eagle Medium (DMEM, Invitrogen) to create 1 mM solutions before use. Soluble CD4 (sCD4) was purchased from ImmunoDiagnostics (Woburn, Mass.). Human 293T embryonic kidney and canine Cf2Th thymocytes (ATCC) were grown at 37° C. and 5% CO2 in DMEM (Invitrogen) containing 10% fetal bovine serum (Sigma) and 100 μg/mL of penicillin-streptomycin (Meditech, Inc.). Cf2Th cells stably expressing human CD4 and either CCR5 or CXCR4 (Babcock et al., 2001, Mirzabekov et al., 1999) were grown in medium supplemented with 0.4 mg/mL of G418 (Invitrogen) and 0.20 mg/mL of hygromycin B (Roche Diagnostics). Using the Effectene transfection reagent (Qiagen), 293T human embryonic kidney cells were cotransfected with plasmids expressing the pCMVΔP1ΔenvpA HIV-1 Gag-Pol packaging construct, the wild-type or mutant HIV-1YU2 envelope glycoproteins or the envelope glycoproteins of the control amphotropic murine leukemia virus (A-MLV), and the firefly luciferase-expressing vector at a DNA ratio of 1:1:3 μg. For the production of viruses pseudotyped with the A-MLV glycoprotein, a rev-expressing plasmid was added. The single-round, replication-defective viruses in the supernatants were harvested 24-30 hours after transfection, filtered (0.45 μm), aliquoted, and frozen at −80° C. until further use. The reverse transcriptase (RT) activities of all viruses were measured as described previously (Rho et al., 1981).
(§4) Cf2Th/CD4-CCR5 or Cf2Th/CD4-CXCR4 target cells were seeded at a density of 6×10^3 cells/well in 96-well luminometer-compatible tissue culture plates (Perkin Elmer) 24 h before infection. On the day of infection, (1 to 100 μM) was added to recombinant viruses (10,000 reverse transcriptase units) in a final volume of 50 μL and incubated at 37° C. for 30 minutes. The medium was removed from the target cells, which were then incubated with the virus-drug mixture for 2-4 hours at 37° C. At the end of this time point, complete medium was added to a final volume of 150 μL and incubated for 48 hours at 37° C. The medium was removed from each well, and the cells were lysed with 30 μL of passive lysis buffer (Promega) by three freeze-thaw cycles.

recombinant HIV-1YU2 = assay: Activation of viral infectivity in CD4-negative Cf2Th-CCR5 cells; assay type: cell-based; conditions: for enhancement of viral infectivity in CD4 deficient cells: YU2, CD4-negative, CCR5-expressing cells
HIV-1YU2 virus = assay: Single-round infection of Cf2Th-CD4/CCR5 cells by luciferase-expressing HIV-1YU2 virus; assay type: cell-based; conditions: for inhibition of entry of YU2 and ADA viruses: CD4- and CCR5-expressing cells
Method: as §1, §3, §4

[2] = target: T1, gp120 from the YU2 strain (Human immunodeficiency virus type 1 group M subtype B, UniProt P35961); assay: biochemical; assay type: binding, HIV-1
Method: as §1
Analogue binding to full-length gp120 from the YU2 strain was next characterized by isothermal titration calorimetry to assess the enthalpic and entropic contributions to binding affinity (FIG. 7 and FIG. 3c). […] Schön, A. et al. Biochemistry 45, 10973-80 (2006). […] Schön, A. et al. Chem Biol Drug Des: 77, 161-165 (2011).
Isothermal titration calorimetric experiments were performed using a high-precision VP-ITC titration calorimetric system from MicroCal LLC. (Northampton, Mass.). The calorimetric cell (˜1.4 mL), containing gp120 at a concentration of about 2 μM dissolved in PBS, pH 7.4 (Roche Diagnostics GmbH), with 2% DMSO, was titrated with the different compounds dissolved in the same buffer at concentrations of 80-130 μM. The compound solution was added in aliquots of 10 μL at pre-set intervals. All solutions were degassed to avoid any formation of bubbles in the calorimeter during stirring. All experiments were performed at 25° C. The heat evolved upon injection of compound was obtained from the integral of the calorimetric signal. The heat associated with the binding reaction was obtained by subtracting the heat of dilution from the heat of reaction. The individual binding heats were plotted against the molar ratio, and the values for the enthalpy change (ΔH) and association constant, Ka (Kd=1/Ka), were obtained by nonlinear regression of the data.

[3] = tested on: clade B Env-pseudoviruses; assay: Neutralization of Env-pseudoviruses in TZM-bl cells, clade B; assay type: cell-based, HIV-1; conditions: for neutralization breadth: clade B
Method: (§5) HIV-1 Env-pseudoviruses were prepared by transfecting 293T cells with 10 μg of rev/env expression plasmid and 30 μg of an env-deficient HIV-1 backbone vector (pSG3Δenv), using Fugene 6 transfection reagents (Invitrogen). Pseudovirus-containing culture supernatants were harvested two days after transfection, filtered (0.45 μm), and stored at −80° C. or in the vapor phase of liquid nitrogen. Neutralization was measured using HIV-1 Env-pseudoviruses to infect TZM-b1 cells as described previously (Li et al., 2005; Li et al., 2006; Seaman et al., 2010; Wu et al., 2009) with minor modifications. Briefly, the test reagent (DMJ-I-228, NBD556, or CD4-Ig) were diluted in complete media containing 10% DMSO. Then 40 μL of virus was added to 10 μL of serial diluted test reagent in duplicate wells of a 96-well flat bottom culture plate, and the virus-reagent mix was incubated for 30 min at 37° C. To keep assay conditions constant, sham media containing 10% DMSO was used in place of test reagent in specified control wells. The virus input was set at a multiplicity of infection of approximately 0.01-0.1, which generally results in 100,000 to 400,000 relative light units (RLU) in a luciferase assay (Promega, Madison, Wis.). The test reagent concentrations were defined at the point of incubation with virus supernatant. Neutralization curves were fit by nonlinear regression using a 5-parameter hill slope equation as previously described (Seaman et al., 2010).
(§6) To assess further the HIV-1 neutralization breadth and potency, we assayed 1, (+)-3, (+)-4 against 42 diverse strains of clades B and C Env-pseudoviruses (data not shown).

[4] = tested on: clade C Env-pseudoviruses; assay: Neutralization of Env-pseudoviruses in TZM-bl cells, clade C; assay type: cell-based, HIV-1; conditions: for neutralization breadth: clade C
Method: as §5, §6

YU2 S375W virus = assay: Viral inhibition with the cavity filling YU2 mutant S375W; assay type: cell-based, HIV-1
Method: Then, the capacity of DMJ-I-228 (10) to bind within the Phe43 cavity was assessed by measuring viral inhibition in the context of the cavity filling YU2 mutant S375W.

[5] = tested on: mono-tropic (HXBc2) and dual tropic (89.6 and KB9) viruses; assay: Inhibition of entry on cells co-expressing CD4 and CXCR4; assay type: cell-based, HIV-1; conditions: Human immunodeficiency virus 1, read-out: IC50 of entry inhibition
Method: as §2
Compounds were dissolved in dimethyl sulfoxide (DMSO), and stored at 10 mM concentrations at −20° C. The compounds were diluted in Dulbecco Modified Eagle Medium (DMEM, Invitrogen) to create 1 mM solutions before use. Soluble CD4 (sCD4) was purchased from ImmunoDiagnostics (Woburn, Mass.). Human 293T embryonic kidney and canine Cf2Th thymocytes (ATCC) were grown at 37° C. and 5% CO2 in DMEM (Invitrogen) containing 10% fetal bovine serum (Sigma) and 100 μg/mL of penicillin-streptomycin (Meditech, Inc.). Cf2Th cells stably expressing human CD4 and either CCR5 or CXCR4 (Babcock et al., 2001, Mirzabekov et al., 1999) were grown in medium supplemented with 0.4 mg/mL of G418 (Invitrogen) and 0.20 mg/mL of hygromycin B (Roche Diagnostics). […] The reverse transcriptase (RT) activities of all viruses were measured as described previously (Rho et al., 1981). […]

[6] = target: T1, gp120 from the YU2 strain; design: species or system HIV-1; conditions: from temperature dependence of the binding enthalpy
gp120 = gp120 (Human immunodeficiency virus type 1 group M subtype B, UniProt P35961); conditions: previously reported, cited from earlier work
[7] = Human immunodeficiency virus 1, TZM-bl, read-out: IC50 GMT

With CNC(=O)C(NC(=O)C(=O)Nc1ccc(Cl)c(F)c1)c1ccccc1 (centres unmarked) the IC50 ([1]; Murine leukemia virus, read-out: IC50 of A-MLV on CD4^+ cells) was 91.7 µM, the “Enhancement of viral infection of CD4− cells” value (recombinant HIV-1YU2; Example 24 table) was 0.00 and the IC50 (HIV-1YU2 virus; Human immunodeficiency virus 1, Cf2Th-CD4/CCR5, read-out: IC50 of HIV-1 on CD4^+ cells) was 70 µM. The ΔG ([2]; Example 24 table) was -7.6 kcal/mol, the ΔH ([2]; Example 24 table) was -9.2 kcal/mol and the “−TΔS” value ([2]; Example 24 table) was “+1.6 kcal/mol”. It also gave a Kd ([2]; Example 24 table, read-out: Kd) of 2.5 µM.
In the case of N=C(N)NC[C@H]1Cc2ccccc2[C@@H]1NC(=O)C(=O)Nc1ccc(Cl)c(F)c1 [(+)-4, (+)-N^1-(4-Chloro-3-fluorophenyl)-N^2-(trans-2-(guanidinomethyl)indan-1-yl)oxalamide formate salt], the IC50 [3, 7] is reported as 1.7 µM, the neutralization breadth [3] is reported as 100% and the “improvement over (+)-3 based on IC50 titers” value ([3]; clade B viruses) is reported as 60%. The “improvement over (+)-3 based on IC80 titers” value ([3]; clade B viruses) was 1.5 fold, the IC50 [4, 7] was 14 µM and the neutralization breadth [4] was 59%. It also gave an IC50 (HIV-1YU2 virus; Human immunodeficiency virus 1, CCR5, read-out: IC50 of viral entry, YU2) of 3.1 ± 0.6 µM and a Kd ([2]; ITC, full-length gp120, read-out: Kd) of 0.11 µM.
In the case of N[C@@H]1Cc2ccccc2[C@H]1NC(=O)C(=O)Nc1ccc(Cl)c(F)c1 [AWS-I-45, N^1-((1R,2R)-2-amino-2,3-dihydro-1H-inden-1-yl)-N^2-(4-chloro-3-fluorophenyl)oxalamide], the “specificity: inhibition of A-MLV entry” value [1] is reported as “non-specificity” and the “binding affinity compared to TS-II-224 (2)” value ([2]; ITC) is reported as “three-fold loss in affinity”.
With N[C@H]1Cc2ccccc2[C@@H]1NC(=O)C(=O)Nc1ccc(Cl)c(F)c1 [AWS-I-50] the “specificity: inhibition of A-MLV entry” value [1] was “non-specificity”, the “binding affinity compared to TS-II-224 (2)” value ([2]; ITC) was “three-fold loss in affinity” and the “entropy contribution −TΔS” value ([2]; ITC, 25° C.) was -7.6 kcal/mol.
For N=C(N)N[C@@H]1Cc2ccccc2[C@H]1NC(=O)C(=O)Nc1ccc(Cl)c(F)c1 [AWS-I-169], the “specificity: inhibition of A-MLV entry” value [1] was “did not inhibit A-MLV entry”, the neutralization breadth [3] was 100% and the “sensitivity of YU2 S375W virus to compound” value (YU2 S375W virus) was “completely resistant”. The “enhancement of viral infectivity in CD4 deficient cells” value (recombinant HIV-1YU2) was “did not enhance viral infectivity; also recorded: did not enhance entry”, the IC50 [5] was 6 to 30 µM and the “change in heat capacity” value [6] was −817±15 cal/(K×mol). For the same molecule, the neutralization breadth [4] was 100%, the “inhibition of entry of YU2 and ADA viruses” value (HIV-1YU2 virus) was “inhibited the entry” and the “binding affinity compared to TS-II-224 (2)” value ([2]; ITC) was “comparable affinity”. The “enthalpy change ΔH” value ([2]; ITC, 25° C.) was -19.4 kcal/mol and the “entropy contribution −TΔS” value ([2]; ITC, 25° C.) was -10.4 kcal/mol.
For N=C(N)N[C@H]1Cc2ccccc2[C@@H]1NC(=O)C(=O)Nc1ccc(Cl)c(F)c1 [DMJ-I-228], the “specificity: inhibition of A-MLV entry” value [1] was “did not inhibit A-MLV entry”, the neutralization breadth [3] was 100% and the “sensitivity of YU2 S375W virus to compound” value (YU2 S375W virus) was “completely resistant”. For the same molecule, the “enhancement of viral infectivity in CD4 deficient cells” value (recombinant HIV-1YU2) was “did not enhance viral infectivity; also recorded: did not enhance entry”, the IC50 [5] was 6 to 30 µM and the neutralization breadth [4] was 100%. For the same molecule, the “inhibition of entry of YU2 and ADA viruses” value (HIV-1YU2 virus) was “inhibited the entry”, the “binding affinity compared to TS-II-224 (2)” value ([2]; ITC) was “comparable affinity” and the “enthalpy change ΔH” value ([2]; ITC, 25° C.) was -14.9 kcal/mol. The “entropy change ΔS” value ([2]; ITC, 25° C.) was −20 cal/(K×mol), the “entropy contribution −TΔS” value ([2]; ITC, 25° C.) was -5.9 kcal/mol and the Kd ([2]; ITC, 25° C., read-out: Kd (binding affinity)) was 0.25 µM.
For CC1(C)CC(NC(=O)C(=O)Nc2ccc(Cl)cc2)CC(C)(C)N1 [NBD-556], the enthalpy change (gp120; 25° C.) is listed as -24.5 kcal/mol and the “unfavorable entropy change −TΔS, contribution to Gibbs energy” value (gp120) is listed as 17.1 kcal/mol.
For O=C(Nc1ccc(Cl)c(F)c1)C(=O)N[C@H]1c2ccccc2C[C@H]1O [TK-II-52], the “specificity: inhibition of A-MLV entry” value [1] was “non-specificity”.
In the case of O=C(Nc1ccc(Cl)c(F)c1)C(=O)N[C@@H]1c2ccccc2C[C@@H]1O [TK-II-103, N^1-(4-chloro-3-fluorophenyl)-N^2-((1R,2S)-2-hydroxy-2,3-dihydro-1H-inden-1-yl)oxalamide], the “specificity: inhibition of A-MLV entry” value [1] is reported as “non-specificity”.
